Test results taken from publication PMC5068747, “Using C. elegans Forward and Reverse Genetics to Identify New Compounds with Anthelmintic Activity” (PLoS Neglected Tropical Diseases, 2016).

Experiments:
Format in all cases: in vivo, Caenorhabditis elegans
[1] = test system: C. elegans pink-1 mutant strains; experiment: Resistance of pink-1 mutant strains (MMP / knockout) to CID 2747322
[2] = test system: C. elegans VC2010; experiment: Manual inspection of growth, brood size, developmental stage and recovery of C. elegans in drug
Protocol: WormScan is a powerful tool to identify compounds with potential effects on the nematode, but it is still necessary to do manual inspection of wells with few animals to determine details of growth, behavior and fecundity. Wild-type worms grown in 90 μM CID 2747322 have brood sizes reduced by 97%. […] All current classes of anthelmintic have greater specificity towards certain life-stages. It is interesting that when removed from the drug L1s will recover and develop, and generally become fertile adults (See S3 Fig).
Supplementary file pntd.0005058.s002.tiff: S2 Fig Developmental stage of inhibition in C. elegans after CID 2747322 exposure. Ten VC2010 L1 stage C. elegans were sorted into a DMSO control well or 90 μM of CID 2747322. Nematodes were removed from the DMSO control or CID 2747322 after 24/48/72 hours and allowed to recover for 30 minutes on standard agar plates. (TIFF) Click here for additional data file.
Supplementary file pntd.0005058.s003.tiff: S3 Fig Development of C. elegans after removel from CID 2747322. Greater than 50 VC2010 L1 stage C. elegans were sorted into a DMSO control well or 90 μM of CID 2747322. Nematodes were removed from DMSO control or CID 2747322 after 2 days of exposure and left to recovery for 24/48/72 hours. (TIFF) Click here for additional data file.

[3] = test system: C. elegans VC3631 (mev-1 gk3613, D19 resistant); experiment: IC50 on CID 2747322 resistant C. elegans strain VC3631; settings: Caenorhabditis elegans, 120 h; 5 days exposure, 2 L4 per well, three biological replicates
Protocol: All compound libraries were stored in 96-well plates, with 80 drugs per plate (columns 1 and 12 left empty). A BioGrid BG600 pinning robot (Digilab / BioRobotics) was used for compound transfer. The robot uses a 96-pin tool (0.7 mm dia.) to transfer a nominal volume of 340 nL of compound. For retesting, compounds were hand pinned from the original library plates to assay plates using a single 0.7 mm dia. pin. The assay plates were 96-well clear flat-bottom microplates containing 2% χ1666 E.coli bacteria in 0.5X Liquid Nematode Growth Media (LNGM) plus cholesterol (Bacteria were mass-grown in rich media, and harvested by centrifugation to produce a thick paste of bacterial cells that was kept frozen at -20°C. Cells were resuspended at 2% W/V in 0.5X LNGM to produce liquid worm food). Using a COPAS Biosort (Union Biometrica), two L4 to young adult stage VC2010 worms were added to each well of the plate in a final volume of 45 μL. After five days of exposure to the compounds, the plates were scanned and the data analyzed. A five day time period was chosen to be able to observe effects over all stages of the life cycle and through at least one round of replication. The initial proof-of-principle primary screen was performed manually using a dissecting microscope. Phenotypes scored included decreased motility, reduced brood size, and/or death as described previously. For high throughput screening of the Chembridge and Maybridge compound libraries we used the program WormScan, which was adapted for screening 96-well flat-bottom LNGM plates. Using WormScan it was possible to screen four 96-well plates at a time. Plates were scanned twice, at a resolution of 1200 dots per inch, 16-bit grayscale, producing a jpeg image. The light intensity produced by the scanner was sufficient to cause negative phototaxis equivalent to a physical stimulus for mortality determination. The time required to scan four 96-well plates using an Epson Perfection V700 Photo Scanner was less than ten minutes. The time to screen a single plate was less than 1.2 minutes, with less than ten seconds between scans.
WormScan was used to screen for the same phenotypes as in the manual screen (reduced brood size, reduced behavior/motility response and increased mortality). Two sequential scans for each 96-well plate were aligned to a reference region of interest (ROI). Image analysis was based on a difference image score calculated for each ROI. The difference image score (WormScan score) was normalized using a “percent of control” method to derive a normalized WormScan score. […] Wild-type growth in 1% DMSO (Fig 1A) results in a normalized WormScan score of 100. Exposure to 50 nM ivermectin gives a score of 0 (Fig 1C), and complete absence of worms gives a score of 0 (Fig 1D). For the primary screen the WormScan score was calculated using custom macro scripts written for Fiji. For secondary screening and any subsequent studies the WormScan score was calculated using a standalone Java program (See supplemental). Probit regression of mortality was calculated using Mathematica 8.0.
A standard ethyl methanesulfonate (EMS) mutagenesis protocol was carried out using VC2010 in order to generate mutants resistant to CID 2747322 exposure. First larval stage (L1) F2 progeny of mutagenized P0s were exposed to CID 2747322 at 200 μM in liquid worm food in 24-well tissue culture plates for five days at room temperature, and two independently isolated resistant lines (VC3614 and VC3615) were identified. […]

COc1ccc(OCCNC(=O)c2ccccc2C(F)(F)F)cc1 [CID 2747322, N-[2-(4-methoxyphenoxy)ethyl]-2-(trifluoromethyl)benzamide]
Resistance ([1]; strain RB2547, pink-1 Knockout): none | Resistance ([1]; strain VC20205, pink-1 W562stop): none | Resistance ([1]; strain VC20423, pink-1 V373I): none | Resistance ([1]; strain VC20470, pink-1 E162K): none | Resistance ([1]; strain VC20521, pink-1 P226S): sensitive | Resistance ([1]; strain VC20546, pink-1 P32L): sensitive | Resistance ([1]; strain VC20588, pink-1 A628T): none | Resistance ([1]; strain VC30104, pink-1 Knockout): none | Resistance ([1]; strain VC30182, pink-1 G415E): none | Resistance ([1]; strain VC40096, pink-1 M1I): none | Resistance ([1]; strain VC40194, pink-1 D378N): resistant | Resistance ([1]; strain VC40287, pink-1 S341N): resistant | Resistance ([1]; strain VC40373, pink-1 A365T): none | Resistance ([1]; strain VC40385, pink-1 L232F): resistant | Resistance ([1]; strain VC40392, pink-1 T65I): none | Resistance ([1]; strain VC40527, pink-1 V334I): none | Resistance ([1]; strain VC40694, pink-1 M556L): resistant | Resistance ([1]; strain VC40738, pink-1 E353K): none | Resistance ([1]; strain VC41008, pink-1 L180F): resistant | developmental stage of inhibition ([2]; 90 μM, while maintained in drug): arrest at the first larval stage (L1) | outcome after exposure / removal from drug ([2]; L1s removed from the drug): reversible inhibition | brood sizes reduced ([2]; wild-type worms grown in 90 μM): 97% | IC50 [3]: > 500 µM
